Measured values as given in US8501753B2, “Useful pharmaceutical salts of 7-[(3R, 4R)-3-Hydroxy-4-hydroxymethyl-pyrrolidin-1-ylmethyl]-3, 5-dihydro-pyrrolo [3, 2-D] pyrimidin-4-one” (BioCryst Pharmaceuticals, Inc., priority 2009, dated 2013).

Assay: Water sorption/desorption by dynamic vapor sorption (DVS)
Type: physicochemical
Conditions: water sorption/desorption chamber
Source text: Table 4 provides a summary of other solid state data collected for the monohydrate salts of compound 1 described in Examples 33-39. The temperature at which the salts dehydrated per DSC is shown in column 2. The percent weight loss as determined by TGA is shown in column 3; the weight loss approximated theoretical weight loss.

Weight gain from 0 to 20% RH from DVS	Weight gain from 0 to 90% RH from DVS	Compound
5.44	6.04	O.O.O=C(O)CCC(=O)O.O=c1[nH]cnc2c(CN3CC(O)C(CO)C3)c[nH]c12.O=c1[nH]cnc2c(CN3CC(O)C(CO)C3)c[nH]c12 (stereo not shown) [Hemisuccinate]
0.87	5.68	O.O.O=C(O)CC(O)C(=O)O.O=c1[nH]cnc2c(CN3CC(O)C(CO)C3)c[nH]c12.O=c1[nH]cnc2c(CN3CC(O)C(CO)C3)c[nH]c12 [Hemi-L-malate]
